Assay results from patent US9284559B2, “Multivalent aptamer complexes” (Wake Forest University Health Sciences, priority 2009, dated 2016).

Key:
C4-2 cells [1] = test: Fluorescence microscopy of fluorescently-labeled aptamer, dimeric complex or mAb on live cells; assay type: cell-based
Description: (§1) FIG. 1. Fluorescence microscopy images of the PSMA01 DNA aptamer binding to (A) C4-2 cells; (B) LNCaP cells; (C)PC3 cells. (D) Binding of the A10-3 RNA aptamer to C4-2 cells. Live cells were incubated in PBS with 1×10^−6 M Rhodamine-conjugated aptamer for 2 h at room temperature. Cells were fixed with 3.7% formaldehyde for 2 min prior to visualization using an Olympus inverted microscope.
FIG. 3. Fluorescence microscopy images of (A) a monomeric aptamer conjugate of PSMA01 with a dT16 tail; (B) a dimeric aptamer complex consisting of 1:1 ratio of monomeric PSMA01 conjugates with dA16 and dT16 tails; (C) the J591 mAb. All images were obtained using live C4-2 cells. For (A) and (B) cells were prepared as described in FIG. 4. […]
We have has formed an affinity matrix using recombinant PSMA expressed from baculovirus. […] Protein purity was determined by gel electrophoresis and the identity of the protein was confirmed by Western blotting and mass spectrometry. […] The ssDNA product was analyzed by gel electrophoresis and quantified by UV absorption. […] DNA sequences were determined from individual clones at the core DNA sequencing facility of the CCCWFU. […] These sequences were also shown using fluorescence microscopy to bind selectively to PSMA-expressing prostate cancer cells (LNCaP, C4-2) relative to PC3 cells. […]

LNCaP cells = test: Fluorescence microscopy of fluorescently-labeled aptamer on live cells; assay type: cell-based; conditions: PSMA+ cells, 2 h, room temperature
Description: as §1
(§2) In these studies, live (non-fixed cells) cells were incubated in the presence of fluorescently-labeled aptamer for 2 h at room temperature. In these studies, C4-2 and LNCaP cells were used to evaluate binding to PSMA+ cells while PC3 cells were used as a PSMA− negative control.

PC3 cells [2] = test: Fluorescence microscopy of fluorescently-labeled aptamer on live cells (PSMA− negative control); assay type: cell-based; conditions: 2 h, room temperature
Description: as §1, §2

C4-2 cells [3] = test: Flow cytometry of binding of fluorescently labeled aptamers and dimeric aptamer complexes; assay type: cell-based; conditions: FIG. 6; Quasar 570 / Quasar 670 fluorescence
Description: FIG. 6. Flow cytometry evaluation of the binding of fluorescently labeled aptamers and dimeric aptamer complexes with and without flexible linkers to C4-2 cells. Aptamer labeling with Quasar 570 and Quasar 670 was done as described in FIG. 8.
The relative binding of the PSMA01 DNA aptamer in monomeric form as well as in dimeric form with and without flexible linkers was also evaluated towards C4-2 cells using flow cytometry. Cells were treated in the same manner as described for the confocal microscopy experiments and were detached using an enzyme-free cell-dissociation buffer (Invitrogen). Cells were analyzed using a BD FACSCanto flow cytometry system and the data were analyzed using BD FACSDiva software (BD Biosciences, San Jose, Calif.).

PC3 xenografts = test: In vivo xenograft study of anti-tumor activity; conditions: for tumor growth relative to control: i.v. 1× per week via jugular vein catheter, 5FU 100 mg/kg, first 44 days, FdUMP[10] effect from day 18
Description: FIG. 7. Plot of tumor size versus time for PC3 xenografts in nude mice. Data are shown for four treatment groups (n=8 in each group): 1) control 1; 2) FdUMP[10]; 3) control 2; 4) 5-FU. The FdUMP[10] and 5FU studies were done consecutively (rather than concurrently) so that two control groups were required.
The principal strategy that will be used to render the dimeric aptamer complexes we have developed selectively cytotoxic towards targeted cancer cells is to include cytotoxic nucleotides, such as FdU, in the structure. While other modalities may also be included to render these modified aptamers cytotoxic to cancer cells (e.g. siRNA, toxins), there is considerable merit to the concept that dimeric aptamer complexes are the best method for delivery of FdU and other cytotoxic nucleotide analogs in the future. In principle, delivery of cytotoxic nucleotide analogs in aptamers increases the selectivity and potency of these drugs while minimizing systemic toxicities. In this regard, it is important to consider the advantages obtained by inclusion of FdU in single-stranded DNA (e.g. FdUMP[10]) relative to delivery as the nucleobase (5FU). We have shown that not only does delivery of fluoropyrimidine (FP) as FdUMP[10] increase efficacy and decrease toxicity, it also changes the spectrum of malignancies that are responsive to FP treatment. […] PSMA, the target for the dimeric aptamer complexes being developed by us, is frequently expressed in advanced prostate cancer. PSMA is also frequently expressed in tumor neovasculature. As FPs are widely used for treatment of solid tumors, the dimeric aptamer complexes developed in these studies should provide an improved mechanism for tumor-specific delivery of FPs.
We recently completed an in vivo xenograft study evaluating the anti-tumor activity of FdUMP[10] and 5FU towards PC3 xenografts (FIG. 8). […] FdUMP[10] (150 mg/kg) was injected i.v. 1× per week via jugular vein catheter. 5FU (100 mg/kg) was also injected 1× per week by the same route. […] FdUMP[10] was well-tolerated at the administered dose. A mixed effects model was fit to examine whether there were differences between groups over the first 44 days after administration of FdUMP[10] or 5FU. In this model, individual animals were considered as random effects and the group and day variables were considered as fixed effects. […] We expect that with dimeric aptamer complexes including FdU, we will further increase the selectivity for malignant cells and further reduce systemic toxicities. Thus, dimeric aptamer complexes may ultimately become the preferred method for administering fluoropyrimidine chemotherapy in the era of molecularly targeted cancer therapeutics.

PC3 cells [4] = test: Relative cytotoxicity of activated FPs in PC3 versus C4-2 cells; assay type: cell-based; conditions: PC3 mutant p53, C4-2 wtp53; ongoing studies

PSMA01: DNA aptamer to PSMA, 5′-GCGTTTTCGCTTTTGCGTTTTGGGTCATCTGCTTACGATAGCAATCGT (SEQ ID NO: 1) (DNA, backbone and methylation of C not given here; further chemistry not fully specified)
internalization into PSMA+ cells (C4-2 cells [1]; C4-2 and LNCaP cells, incubation at room temperature or 37° C.): Neither our PSMA-01 DNA aptamer nor the A10-3 aptamer were internalized into PSMA+ cells to any significant extent
binding to C4-2 cells (C4-2 cells [1]; PSMA+ cells, live cells, 1×10^−6 M Rhodamine-conjugated aptamer, 2 h, room temperature): selective binding
binding to LNCaP cells (LNCaP cells): selective binding
binding to PC3 cells (PC3 cells [2]): no binding
mean fluorescence intensity (cell binding) (C4-2 cells [3]): right-shifted relative to background

O=c1[nH]cc(F)c(=O)[nH]1 [5FU, 5-fluorouracil]
tumor growth relative to control (PC3 xenografts; FdUMP[10] 150 mg/kg): did not reduce tumor growth rates relative to control
tolerability / body weight at administered dose (PC3 xenografts; mouse, in vivo): lost weight compared to the controls

FdUMP[10]
tumor growth relative to control (PC3 xenografts; FdUMP[10] 150 mg/kg): significantly reduced tumor growth relative to control
tolerability / body weight at administered dose (PC3 xenografts; i.v. 1× per week, FdUMP[10] 150 mg/kg, 5FU 100 mg/kg (maximum tolerated dose)): well-tolerated
relative sensitivity of PC3 versus C4-2 cells to activated FPs (PC3 cells [4]): PC3 cells are more sensitive
